# Results taken from patent publication US20140127231A1, “p38 MAPK Pathway Inhibitors as Female-Specific Therapeutics” (UNIVERSITY OF VERMONT, priority 2012, published 2014).
# “Also recorded” adds a separate entry of the source.
# Test system: Naïve CD4+ T cells cultured under TH17 polarizing conditions
# Test: In vitro TH17 differentiation of CD4+ T cells, IL-17 production
# Assay type: cell-based, mice
# Settings: 3 days
# Method: Naïve CD4+ T cells were purified by negative selection and cultured under TH17 polarizing conditions for 3 days in the presence of SB20350 (5 μM if not otherwise indicated). IL-17 secretion was analyzed by ELISA (FIG. 3A). Relative IL-17 mRNA was assessed by qRT-PCR (FIG. 3B). IL-17 levels were assessed using intracellular staining and flow cytometry (FIG. 3C).
# Total CD4 T cells were isolated from spleen and lymph nodes as previously described (Noubade et al., 2007, J Clin Invest., 117(11):3507-3518), by negative selection for CD8-, MHC class II-, NK1.1- and CD11b-positive cells using magnetic beads from QIAGEN. For FACS sorting, negatively selected CD4 T cells were stained with anti-TCRβ-allophycocyanin and anti-CD4-Texas Red (Invitrogen), and sorted using a FACSAria cell sorting system (BD Biosciences). Th17 CD4 T cells were generated by activating total CD4 T cells (1×10^6 cells/mL) in RPMI containing 10% FBS (Hyclone), with plate bound anti-CD3 (5 μg/mL) and soluble anti-CD28 (1 μg/mL) mAbs from BD Pharmingen in the presence of 1 ng/mL TGFβ (PeproTech Inc), 30 ng/mL IL-6 (R&D Systems), 10 μg/mL anti-IFNγ, and 10 μg/mL anti-IL-4 mAbs. […]
# For intracellular cytokine staining, either FACS-sorted or total CD4 T cells polarized to Th17 cells in the absence or the presence of 5 μM SB203580 were stimulated with 5 ng/mL PMA, 250 ng/mL ionomycin, and 2 μM monensin (Sigma-Aldrich) for the last 4 hours of culture. […] Cells were collected using a LSR II cytometer (BD Biosciences) and analyzed using FlowJo software (TreeStar Inc).
# Total RNA was extracted from CD4 T cells using RNeasy RNA isolation reagent (QIAGEN) as recommended by the manufacturer. The generated cDNA was used in quantitative real-time PCR using the assay-on-demand (AOD) TaqMan probe and primers for IL-17A and β2-microglobulin (Applied Biosystems). β2-microglobulin was used as a reference gene and relative mRNA levels were calculated using the comparative CT method.
# IL-17 production was analyzed by various methods including ELISA, qRT-PCR, and intracellular staining and flow cytometry.
smiles,measurement,setting,value
C[S+]([O-])c1ccc(-c2nc(-c3ccncc3)c(-c3ccc(F)cc3)[nH]2)cc1 (stereo not drawn) [SB203580],"Cellular IL-17 protein levels (intracellular staining, flow cytometry)",5 μM,decreased
same,IL-17 mRNA levels (qRT-PCR),5 μM,not significantly affected
same,IL-17 production / secretion (ELISA),"inhibitor present, listed as SB",suppressed IL-17 production in a dose-dependent manner; also recorded: decreased; also recorded: reduced IL-17 production in vitro; also recorded: inhibits IL-17 production at a post-transcriptional level
